In experiment [1] the target is T1, GluK2 kainate receptor (Rattus norvegicus, UniProt P42260, I567V/Y571C).
T1 construct: gene Grik2; full-length rat GluK2 (GenBank CAA77778.1), V567, C571, Q621 (Q/R site unedited); LBD-TMD modelled (S429-R874); homotetramer
Description: cryo-EM structure ([…] Å, with BPAM344); IC50 from whole-cell patch clamp in HEK293 cells. In kind it is cell-based. For orientation: In patch-clamp work, channel activity is measured electrically.

Experiment [2] concerns the target T2, GluK2 kainate receptor (Rattus norvegicus, UniProt P42260).
T2 construct: gene Grik2; full-length rat GluK2, Q621 (Q/R site unedited), homotetramer
Description: whole-cell patch clamp in HEK293 cells expressing GluK2 (agonist, with ConA treatment). The experiment is classed as cell-based.

Experiment [3] addresses T1, GluK2 kainate receptor. The experiment in a line: cryo-EM structure ([…] Å, with BPAM344); IC50 from whole-cell patch clamp in HEK293 cells. The experiment is classed as cell-based. This is another data set of the same source.
For experiment [4], the target named is T1, GluK2 kainate receptor. Description: cryo-EM structures (four BPAM344 molecules per tetramer in all four structures).
For experiment [5], the target named is T1, GluK2 kainate receptor. The experiment in a line: cryo-EM structure ([…] Å, with BPAM344); IC50 from whole-cell patch clamp in HEK293 cells. In kind it is cell-based. This is another data set of the same source.
Experiment [6] deals with T1, GluK2 kainate receptor. Described as above. In kind it is cell-based. This is another data set of the same source.

Like-named read-outs stand apart in the source and are kept apart here.

Six molecules from publication PMC11599716, “Trapping of spermine, Kukoamine A, and polyamine toxin blockers in GluK2 kainate receptor channels” (Nature Communications, 2024) can be followed below.

T1 sequence (P42260 32-908 I567V/Y571C): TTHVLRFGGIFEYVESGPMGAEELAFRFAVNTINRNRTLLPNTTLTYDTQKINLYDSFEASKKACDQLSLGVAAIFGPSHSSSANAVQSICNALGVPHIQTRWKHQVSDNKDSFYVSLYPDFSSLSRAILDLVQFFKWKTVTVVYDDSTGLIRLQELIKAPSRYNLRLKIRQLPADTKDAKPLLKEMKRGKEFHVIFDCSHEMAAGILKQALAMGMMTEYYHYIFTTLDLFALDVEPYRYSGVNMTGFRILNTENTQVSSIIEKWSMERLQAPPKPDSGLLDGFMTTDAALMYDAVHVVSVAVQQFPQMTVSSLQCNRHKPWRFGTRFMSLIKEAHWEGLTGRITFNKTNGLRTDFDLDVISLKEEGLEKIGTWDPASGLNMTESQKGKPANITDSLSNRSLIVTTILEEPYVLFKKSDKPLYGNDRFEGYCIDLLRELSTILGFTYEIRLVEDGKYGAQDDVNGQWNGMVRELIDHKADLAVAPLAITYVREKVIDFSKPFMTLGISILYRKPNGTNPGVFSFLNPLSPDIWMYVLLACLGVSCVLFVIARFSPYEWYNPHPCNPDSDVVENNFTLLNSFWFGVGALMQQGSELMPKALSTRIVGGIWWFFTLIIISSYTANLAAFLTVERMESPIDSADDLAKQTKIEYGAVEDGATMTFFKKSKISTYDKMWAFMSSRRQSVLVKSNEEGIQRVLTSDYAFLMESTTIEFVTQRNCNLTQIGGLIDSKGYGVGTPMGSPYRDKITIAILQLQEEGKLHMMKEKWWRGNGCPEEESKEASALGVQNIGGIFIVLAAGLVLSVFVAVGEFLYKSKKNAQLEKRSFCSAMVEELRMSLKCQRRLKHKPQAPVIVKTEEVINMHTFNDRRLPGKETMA
T2 sequence (P42260 32-908): as the sequence (P42260 32-908 I567V/Y571C) above, with V536I, C540Y counted along it

`O=C(CCc1ccc(O)c(O)c1)NCCCNCCCCNCCCNC(=O)CCc1ccc(O)c(O)c1` [KukoA, Kukoamine A]: at GluK2 kainate receptor [1], the IC50 – broadly, the concentration at which inhibition is half-maximal – was 704 ± 31 µM. As to `C=C(C)[C@H]1CN[C@H](C(=O)O)[C@H]1CC(=O)O` [KA, kainic acid], the “whole-cell patch clamp in HEK293 cells expressing GluK2 (agonist, with ConA trea)” value on GluK2 kainate receptor [2] is listed as “the agonist kainic acid (KA) elicited large inward currents with a steady-state value of IControl”. In turn, `NCCCNCCCCNCCCN` [SPM, spermine] displayed an IC50 on GluK2 kainate receptor [3] of 7770 ± 510 µM.

On to `O=S1(=O)NCN(C2CC2)c2ccc(F)cc21` [BPAM, BPAM344], for which the “cryo-EM structures (four BPAM344 molecules per tetramer in all four structures)” value at GluK2 kainate receptor [4] is “improved map quality, with well-resolved densities for BPAM, carbohydrates, and annular lipids”.

The molecule `CCCC(=O)N[C@H](Cc1ccc(O)cc1)C(=O)NCCCCCCCNCCCCN` [PhTx-74] returned an IC50 on GluK2 kainate receptor [5] of 7.53 ± 0.35 µM. `NCCCNCCCCNCCC(=O)NCCCCCNC(=O)[C@@H](CC(N)=O)NC(=O)Cc1c[nH]c2ccccc12` [NpTx-8] returned a half-inhibitory concentration (IC50) against GluK2 kainate receptor [6] of 0.51 ± 0.01 µM.
